Columns and labels:
[1] = test system: Escherichia coli D21f2tolC; test: MIC, spiral gradient endpoint assay, E. coli D21f2tolC; type: cell-based; details: Escherichia coli, D21F2TOLC, read-out: MIC E. coli D21f2toIC
[2] = test system: methicillin-resistant Staphylococcus aureus (MRSA) strain BAA-1707 (USA-400, MW2); test: Antibacterial efficacy in mouse model of Staphylococcus aureus systemic infection (peritonitis model); type: in vivo, Swiss Webster mice; details: mice
[3] = test system: methicillin-resistant Staphylococcus aureus (MRSA) strain BAA-1717 (USA-300); test: MIC, spiral gradient endpoint assay, MRSA BAA-1717; type: cell-based; details: Staphylococcus aureus; read-out: MIC S. aureus MRSA BAA-1717
[4] = test system: Acinetobacter baumannii ATCC 19606; test: MIC, spiral gradient endpoint assay, A. baumannii; type: cell-based; details: ATCC19606; Acinetobacter baumannii ATCC 19606
[5] = test system: linezolid-resistant Staphylococcus aureus (LRSA) strain NRS 120; test: MIC, spiral gradient endpoint assay, LRSA NRS 120; type: cell-based; details: Staphylococcus aureus, NRS120; read-out: MIC S. aureus LRSA NRS120
[6] = test system: Staphylococcus aureus ATCC 12600; test: MIC, spiral gradient endpoint assay, S. aureus ATCC 12600; type: cell-based; details: ATCC12600; Staphylococcus aureus ATCC 12600
[7] = test system: Mycobacterium tuberculosis H37Rv; test: MIC, microplate Alamar Blue assay, M. tuberculosis; type: cell-based
[8] = test system: methicillin-resistant Staphylococcus aureus (MRSA) strain BAA-1707 (USA-400; MW2); test: MIC, spiral gradient endpoint assay, MRSA BAA-1707; type: cell-based; details: Staphylococcus aureus; read-out: MIC S. aureus MRSA BAA-1707
[9] = target: E. coli RNA polymerase σ^70 holoenzyme (Escherichia coli, UniProt P0A8T7+P0A8V2); test: Fluorescence-detected RNA polymerase assay, E. coli RNA polymerase; type: biochemical; details: read-out: IC50 E. coli RNAP
[10] = test system: vancomycin-intermediate Staphylococcus aureus (VISA) strain NRS 1; test: MIC, spiral gradient endpoint assay, VISA NRS 1; type: cell-based; details: Staphylococcus aureus; read-out: MIC S. aureus VISA NRS1
[11] = test system: rifampin-resistant Staphylococcus aureus (RRSA) strain ATCC 12600-Rif (H526N); test: MIC, spiral gradient endpoint assay, RRSA 12600-Rif; type: cell-based; details: Staphylococcus aureus, ATCC12600; read-out: MIC S. aureus RRSA 12600-Rif
[12] = target: M. tuberculosis RNA polymerase core enzyme, M. tuberculosis σ^A (Mycobacterium tuberculosis, UniProt P9WGY7+P9WGY9); test: Fluorescence-detected RNA polymerase assay, M. tuberculosis RNA polymerase; type: biochemical; details: read-out: IC50 M. tuberculosis RNAP
Brucella melitensis 16M = test: microbe, parasite or virus in culture; type: cell-based; details: Brucella melitensis, 16M, read-out: MIC B. melitensis 16M
[13] = test system: Burkholderia pseudomallei Human/Blood/OH/US/1994; test: microbe, parasite or virus in culture; type: cell-based; details: Burkholderia pseudomallei, read-out: MIC B. pseudomallei Human/Blood/OH
[14] = target: S. aureus RNA polymerase core enzyme, S. aureus σ^A (Staphylococcus aureus, UniProt P47768+Q2G0N5); test: Fluorescence-detected RNA polymerase assay, S. aureus RNA polymerase; type: biochemical; details: read-out: IC50 S. aureus RNAP
Burkholderia mallei CHN7 = test: microbe, parasite or virus in culture; type: cell-based; details: Burkholderia mallei, CHN7, read-out: MIC B. mallei CHN7
[15] = test system: Francisella tularensis SCHU4; test: microbe, parasite or virus in culture; type: cell-based; details: Francisella tularensis, SCHU4, read-out: MIC F. tularensis SCHU4
[16] = test system: Bacillus anthracis Vollum 1b; test: microbe, parasite or virus in culture; type: cell-based; details: Bacillus anthracis, VOLLUM1B, read-out: MIC B. anthracis Vollum-1b
Yersinia pestis C092 = test: microbe, parasite or virus in culture; type: cell-based; details: Yersinia pestis, C092, read-out: MIC Y. pestis C092
[17] = intravenous administration 0 h post-infection

Sequence of S. aureus RNA polymerase core enzyme, S. aureus σ^A (Q2G0N5 whole entry): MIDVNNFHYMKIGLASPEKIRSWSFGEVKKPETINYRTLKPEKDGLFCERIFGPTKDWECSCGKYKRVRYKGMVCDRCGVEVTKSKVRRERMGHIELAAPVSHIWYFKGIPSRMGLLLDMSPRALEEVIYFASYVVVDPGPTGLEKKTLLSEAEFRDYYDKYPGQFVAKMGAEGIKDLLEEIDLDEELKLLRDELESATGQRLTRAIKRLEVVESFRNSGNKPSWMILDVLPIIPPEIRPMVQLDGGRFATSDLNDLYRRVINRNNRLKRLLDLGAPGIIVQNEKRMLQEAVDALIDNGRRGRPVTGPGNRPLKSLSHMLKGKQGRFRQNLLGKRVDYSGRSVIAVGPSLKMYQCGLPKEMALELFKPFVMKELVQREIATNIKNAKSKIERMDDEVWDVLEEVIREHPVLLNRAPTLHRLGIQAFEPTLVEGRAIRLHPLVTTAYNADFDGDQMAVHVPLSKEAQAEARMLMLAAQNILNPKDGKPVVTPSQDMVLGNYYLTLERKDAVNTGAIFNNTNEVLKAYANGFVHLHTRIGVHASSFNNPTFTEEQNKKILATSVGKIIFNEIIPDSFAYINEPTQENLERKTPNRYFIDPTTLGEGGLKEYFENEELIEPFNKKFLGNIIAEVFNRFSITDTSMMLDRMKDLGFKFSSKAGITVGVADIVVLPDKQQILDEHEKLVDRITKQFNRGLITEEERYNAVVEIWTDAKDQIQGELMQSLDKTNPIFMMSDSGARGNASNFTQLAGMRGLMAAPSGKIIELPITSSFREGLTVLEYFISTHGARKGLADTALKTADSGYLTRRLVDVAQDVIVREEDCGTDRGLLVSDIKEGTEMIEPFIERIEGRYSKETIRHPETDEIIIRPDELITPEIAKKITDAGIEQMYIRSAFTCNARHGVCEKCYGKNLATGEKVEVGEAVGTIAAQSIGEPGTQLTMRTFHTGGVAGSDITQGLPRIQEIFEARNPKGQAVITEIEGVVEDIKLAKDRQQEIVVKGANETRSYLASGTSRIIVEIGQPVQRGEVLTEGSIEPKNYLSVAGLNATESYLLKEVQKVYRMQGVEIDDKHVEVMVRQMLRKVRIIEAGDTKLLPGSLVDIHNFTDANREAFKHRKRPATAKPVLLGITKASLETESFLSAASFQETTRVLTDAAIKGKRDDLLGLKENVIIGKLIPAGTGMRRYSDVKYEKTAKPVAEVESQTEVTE
Sequence of S. aureus RNA polymerase core enzyme, S. aureus σ^A (Q2FW32 whole entry, further chain): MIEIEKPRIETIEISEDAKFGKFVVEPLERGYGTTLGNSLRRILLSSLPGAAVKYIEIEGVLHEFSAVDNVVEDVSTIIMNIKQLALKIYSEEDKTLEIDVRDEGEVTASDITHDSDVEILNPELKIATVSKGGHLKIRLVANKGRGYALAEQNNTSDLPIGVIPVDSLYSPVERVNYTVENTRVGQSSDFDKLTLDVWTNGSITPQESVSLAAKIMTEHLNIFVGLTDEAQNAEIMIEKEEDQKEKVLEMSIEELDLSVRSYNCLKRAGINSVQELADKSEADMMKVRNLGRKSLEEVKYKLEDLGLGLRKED
Sequence of S. aureus RNA polymerase core enzyme, S. aureus σ^A (P0A0J0 whole entry, further chain): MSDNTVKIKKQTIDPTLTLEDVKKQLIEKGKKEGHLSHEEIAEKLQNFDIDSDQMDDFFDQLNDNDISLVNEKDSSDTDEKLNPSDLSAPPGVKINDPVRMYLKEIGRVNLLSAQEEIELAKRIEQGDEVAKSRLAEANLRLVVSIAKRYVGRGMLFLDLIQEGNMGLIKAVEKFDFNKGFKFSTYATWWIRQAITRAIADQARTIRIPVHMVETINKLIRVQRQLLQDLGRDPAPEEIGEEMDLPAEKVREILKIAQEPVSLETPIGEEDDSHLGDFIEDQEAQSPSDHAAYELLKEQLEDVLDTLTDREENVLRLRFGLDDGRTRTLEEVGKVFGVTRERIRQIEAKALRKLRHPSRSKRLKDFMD
Sequence of S. aureus RNA polymerase core enzyme, S. aureus σ^A (P47768 whole entry): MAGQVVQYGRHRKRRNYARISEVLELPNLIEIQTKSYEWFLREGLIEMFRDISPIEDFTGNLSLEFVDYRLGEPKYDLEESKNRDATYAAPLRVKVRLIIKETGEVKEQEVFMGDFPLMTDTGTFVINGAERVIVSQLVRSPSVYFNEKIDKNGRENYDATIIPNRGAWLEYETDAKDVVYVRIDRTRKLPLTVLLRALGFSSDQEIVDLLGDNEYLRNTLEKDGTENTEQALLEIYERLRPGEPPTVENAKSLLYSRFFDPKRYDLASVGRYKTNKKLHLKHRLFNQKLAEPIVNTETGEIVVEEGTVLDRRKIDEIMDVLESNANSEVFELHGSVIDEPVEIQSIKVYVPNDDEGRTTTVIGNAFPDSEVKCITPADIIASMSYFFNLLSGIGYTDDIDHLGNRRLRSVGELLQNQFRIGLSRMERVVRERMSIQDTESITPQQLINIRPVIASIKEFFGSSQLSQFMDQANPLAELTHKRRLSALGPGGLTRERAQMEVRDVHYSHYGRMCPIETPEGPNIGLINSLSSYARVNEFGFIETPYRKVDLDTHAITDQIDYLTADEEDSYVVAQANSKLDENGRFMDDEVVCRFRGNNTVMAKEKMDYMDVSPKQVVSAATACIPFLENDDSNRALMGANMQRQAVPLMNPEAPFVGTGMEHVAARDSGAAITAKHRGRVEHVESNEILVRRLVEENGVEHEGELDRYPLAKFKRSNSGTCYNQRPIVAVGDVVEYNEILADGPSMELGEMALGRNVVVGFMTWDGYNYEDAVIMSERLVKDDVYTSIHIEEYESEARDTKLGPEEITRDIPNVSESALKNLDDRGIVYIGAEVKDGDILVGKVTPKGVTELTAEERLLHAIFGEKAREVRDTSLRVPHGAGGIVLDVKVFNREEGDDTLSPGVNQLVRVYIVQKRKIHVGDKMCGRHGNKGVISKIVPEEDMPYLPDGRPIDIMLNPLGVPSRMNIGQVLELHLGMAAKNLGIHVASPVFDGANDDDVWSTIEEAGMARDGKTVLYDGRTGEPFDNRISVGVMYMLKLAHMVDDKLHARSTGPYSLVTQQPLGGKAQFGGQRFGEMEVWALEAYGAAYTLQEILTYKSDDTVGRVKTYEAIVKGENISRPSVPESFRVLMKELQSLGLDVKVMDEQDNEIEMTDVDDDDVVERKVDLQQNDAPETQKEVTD

Compound	MIC [1]	PD50 [2, 17]	PD50 ([2]; oral administration 1 h pre-infection)	MIC [3]	MIC [4]	MIC [5]	MIC [6]	MIC [7]	MIC [8]	IC50 [9]	MIC [10]	MIC [11]	IC50 [12]	MIC (Brucella melitensis 16M)	MIC [13]	IC50 [14]	MIC (Burkholderia mallei CHN7)	MIC [15]	MIC [16]	MIC (Yersinia pestis C092)
COC(=O)N/C=C/CCC(C)c1cc(O)c(C(=O)C(C)=Cc2ccc(OCC(F)(F)F)s2)c(=O)o1 (mixture of isomers) [APY116, methyl ((1E)-5-(4-hydroxy-3-(2-methyl-3-(5-(2,2,2-trifluoroethoxy)thiophen-2-yl)acryloyl)-2-oxo-2H-pyran-6-yl)hex-1-en-1-yl)carbamate]	0.2 µg/mL	20 mg/kg	50 mg/kg	2 µg/mL	> 40 µg/mL	0.8 µg/mL	1 µg/mL	6 µg/mL	2 µg/mL	30 nM	0.7 µg/mL	2 µg/mL								
COC(=O)N/C=C/CCC(C)c1cc(O)c(C(=O)C(C)=Cc2ccc(CCCC(F)(F)F)s2)c(=O)o1 (mixture of isomers) [APY81, methyl ((1E)-5-(4-hydroxy-3-(2-methyl-3-(5-(4,4,4-trifluorobutyl)thiophen-2-yl)acryloyl)-2-oxo-2H-pyran-6-yl)hex-1-en-1-yl)carbamate]	0.08 µg/mL			0.9 µg/mL	20 µg/mL		0.4 µg/mL	10 µg/mL	0.5 µg/mL	10 nM		0.8 µg/mL	50 nM	2 µg/mL	10 µg/mL	30 nM	10 µg/mL	30 µg/mL	2 µg/mL	
CCCCc1ccc(C=C(C)C(=O)c2c(O)cc(C(C)CC/C=C/NC(=O)OC)oc2=O)cc1 (mixture of isomers) [APY41, methyl (E)-5-(3-((E/Z)-3-(4-butylphenyl)-2-methylacryloyl)-4-hydroxy-2-oxo-2H-pyran-6-yl)hex-1-enylcarbamate]	< 0.2 µg/mL			0.6 µg/mL	> 40 µg/mL		0.8 µg/mL	3 µg/mL	0.6 µg/mL	8 nM		0.9 µg/mL		0.8 µg/mL	10 µg/mL		6 µg/mL	6 µg/mL	2 µg/mL	30 µg/mL
COC(=O)N/C=C/CCC(C)c1cc(O)c(C(=O)C(C)=Cc2ccc(OC(C)C)cc2)c(=O)o1 (mixture of isomers) [APY66, methyl (E)-5-(4-hydroxy-5-((E/Z)-3-(4-isopropoxyphenyl)-2-methylacryloyl)-6-oxo-6H-pyran-2-yl)hex-1-enylcarbamate]	0.8 µg/mL			2 µg/mL	> 40 µg/mL		2 µg/mL	6 µg/mL	2 µg/mL	1000 nM		3 µg/mL		10 µg/mL	> 50 µg/mL		> 50 µg/mL	> 50 µg/mL	10 µg/mL	
COC(=O)N/C=C/CCC(C)c1cc(O)c(C(=O)C(C)=Cc2ccc(OC(C)C)s2)c(=O)o1 (mixture of isomers) [APY107, methyl ((1E)-5-(4-hydroxy-3-(3-(5-isopropoxythiophen-2-yl)-2-methylacryloyl)-2-oxo-2H-pyran-6-yl)hex-1-en-1-yl)carbamate]	0.1 µg/mL			2 µg/mL	> 40 µg/mL		2 µg/mL	10 µg/mL	2 µg/mL	20 nM		2 µg/mL	400 nM							
COC(=O)N/C=C/CCCc1cc(O)c(C(=O)C(C)=Cc2ccc(CCCC(F)(F)F)s2)c(=O)o1 (mixture of isomers) [APY90, methyl ((1E)-5-(4-hydroxy-3-(2-methyl-3-(5-(4,4,4-trifluorobutyl)thiophen-2-yl)acryloyl)-2-oxo-2H-pyran-6-yl)pent-1-en-1-yl)carbamate]	0.07 µg/mL			2 µg/mL	10 µg/mL		0.9 µg/mL	10 µg/mL	2 µg/mL	30 nM		2 µg/mL	300 nM			800 nM				
CCCOCc1ccc(C=C(C)C(=O)c2c(O)cc(C(C)CC/C=C/NC(=O)OC)oc2=O)s1 (mixture of isomers) [APY109, methyl ((1E)-5-(4-hydroxy-3-(2-methyl-3-(5-(propoxymethyl)thiophen-2-yl)acryloyl)-2-oxo-2H-pyran-6-yl)hex-1-en-1-yl)carbamate]	0.2 µg/mL			7 µg/mL	> 40 µg/mL		3 µg/mL	30 µg/mL	7 µg/mL	80 nM		7 µg/mL	800 nM							
COC(=O)N/C=C/CCC(C)c1cc(O)c(C(=O)C(C)=Cc2ccc(CCC3CC3)s2)c(=O)o1 (mixture of isomers) [APY95, methyl ((1E)-5-(3-(3-(5-(2-cyclopropylethyl)thiophen-2-yl)-2-methylacryloyl)-4-hydroxy-2-oxo-2H-pyran-6-yl)hex-1-en-1-yl)carbamate]	0.1 µg/mL			0.4 µg/mL	10 µg/mL		0.8 µg/mL	10 µg/mL	0.3 µg/mL	5 nM		0.5 µg/mL	50 nM							
COC(=O)N/C=C/CCC(C)c1cc(O)c(C(=O)C(C)=Cc2ccc(CC(C)C)s2)c(=O)o1 (mixture of isomers) [APY60, methyl (E)-5-(4-hydroxy-5-((E/Z)-3-(5-isobutylthiophen-2-yl)-2-methylacryloyl)-6-oxo-6H-pyran-2-yl)hex-1-enylcarbamate]	0.2 µg/mL	20 mg/kg		0.5 µg/mL	9 µg/mL		0.4 µg/mL	10 µg/mL	0.4 µg/mL	10 nM		0.7 µg/mL		6 µg/mL	30 µg/mL		30 µg/mL	10 µg/mL	3 µg/mL	
CCOCc1ccc(C=C(C)C(=O)c2c(O)cc(C(C)CC/C=C/NC(=O)OC)oc2=O)s1 (mixture of isomers) [APY108, methyl ((1E)-5-(3-(3-(5-(ethoxymethyl)thiophen-2-yl)-2-methylacryloyl)-4-hydroxy-2-oxo-2H-pyran-6-yl)hex-1-en-1-yl)carbamate]	0.4 µg/mL			20 µg/mL	> 40 µg/mL		10 µg/mL	30 µg/mL	20 µg/mL	300 nM		20 µg/mL	700 nM							
COC(=O)N/C=C/CCCc1cc(O)c(C(=O)C(C)=Cc2ccc(CCC(C)C)s2)c(=O)o1 (mixture of isomers) [APY91, methyl ((1E)-5-(4-hydroxy-3-(3-(5-isopentylthiophen-2-yl)-2-methylacryloyl)-2-oxo-2H-pyran-6-yl)pent-1-en-1-yl)carbamate]	0.08 µg/mL			2 µg/mL	9 µg/mL		0.7 µg/mL	50 µg/mL	2 µg/mL	20 nM		2 µg/mL	400 nM			600 nM				
COC(=O)N/C=C/CCC(C)c1cc(O)c(C(=O)C(C)=Cc2ccc(CCC(C)C)cc2)c(=O)o1 (mixture of isomers) [APY73, methyl (E)-5-(4-hydroxy-5-((E/Z)-3-(4-isopentylphenyl)-2-methylacryloyl)-6-oxo-6H-pyran-2-yl)hex-1-enylcarbamate]	0.3 µg/mL			1 µg/mL	> 40 µg/mL		0.6 µg/mL		1 µg/mL	40 nM		2 µg/mL		3 µg/mL	50 µg/mL		50 µg/mL	10 µg/mL	2 µg/mL	

Source: patent publication US9592221B2, “Antibacterial agents: aryl myxopyronin derivatives” (priority 2012, dated 2017)
